Experimental data taken from US10597388B2, “Pyridazinone herbicides” (FMC CORPORATION, priority 2014, dated 2020).

Assays:
Test in all cases: Test E greenhouse herbicide test, pre- and postemergence
Assay type in all cases: in vivo
Conditions in all cases: Preemergence
corn (Zea mays) = system: corn (Zea mays)
From the text: (§1) Seeds of plant species selected from corn (Zea mays), soybean (Glycine max), velvetleaf (Abutilon theophrasti), lambsquarters (Chenopodium album), wild poinsettia (Euphorbia heterophylla), pigweed, palmer (palmer pigweed, Amaranthus palmeri), waterhemp (common waterhemp, Amaranthus rudis), surinam grass (Brachiaria decumbens), crabgrass, large (large crabgrass, Digitaria sanguinalis), crabgrass, Brazilian (Brazilian crabgrass, Digitaria horizontalis), panicum, fall (fall panicum, Panicum dichotomiflorum), foxtail, giant (giant foxtail, Setaria faberii), foxtail, green (green foxtail, Setaria viridis), goosegrass (Eleusine indica), johnsongrass (Sorghum halepense), ragweed (common ragweed, Ambrosia elatior), barnyardgrass (Echinochloa crus-galli), sandbur (southem sandbur, Cenchrus echinatus), arrowleaf sida (Sida rhombifolia), Italian ryegrass (Lolium multiflorum), dayflower (Virginia (VA) dayflower, Commelina virginica), field bindweed (Convolvulus arvensis), momingglory (Ipomoea coccinea), nightshade (eastern black nightshade, Solanum ptycanthum), kochia (Kochia scoparia), nutsedge, yellow (yellow nutsedge, Cyperus esculentus), horseweed (Conyza canadensis), and beggarticks (hairy beggarticks, Bidens pilosa), were planted into a silt loam soil and treated preemergence with test chemicals formulated in a non-phytotoxic solvent mixture which included a surfactant.
(§2) At the same time, plants from these crop and weed species and also waterhemp_RES1, (ALS & Triazine resistant common waterhemp, Amaranthus rudis), and waterhemp_RES2, (ALS & HPPD resistant common waterhemp, Amaranthus rudis) were planted in pots containing Redi-Earth® planting medium (Scotts Company, 14111 Scottslawn Road, Marysville, Ohio 43041) comprising spaghnum peat moss, vermiculite, wetting agent and starter nutrients were treated with postemergence applications of test chemicals formulated in the same manner. Plants ranged in height from 2 to 18 cm for postemergence treatments (1- to 4-leaf stage). Treated plants and controls were maintained in a greenhouse for 14 to 21 d, after which time all species were compared to controls and visually evaluated. Plant response ratings, summarized in Table E, are based on a scale of 0 to 100 where 0 is no effect and 100 is complete control. A dash (-) response means no test result.

[1] = system: crabgrass, Brazilian (Brazilian crabgrass, Digitaria horizontalis)
From the text: as §1, §2

[2] = system: crabgrass, large (large crabgrass, Digitaria sanguinalis)
From the text: as §1, §2

[3] = system: dayflower (Virginia (VA) dayflower, Commelina virginica)
From the text: as §1, §2

[4] = system: foxtail, giant (giant foxtail, Setaria faberii)
From the text: as §1, §2

[5] = system: foxtail, green (green foxtail, Setaria viridis)
From the text: as §1, §2

[6] = system: johnsongrass (Sorghum halepense)
From the text: as §1, §2

kochia (Kochia scoparia) = system: kochia (Kochia scoparia)
From the text: as §1, §2

[7] = system: lambsquarters (Chenopodium album)
From the text: as §1, §2

[8] = system: nutsedge, yellow (yellow nutsedge, Cyperus esculentus)
From the text: as §1, §2

[9] = system: panicum, fall (fall panicum, Panicum dichotomiflorum)
From the text: as §1, §2

[10] = system: pigweed, palmer (palmer pigweed, Amaranthus palmeri)
From the text: as §1, §2

[11] = system: sandbur (southem sandbur, Cenchrus echinatus)
From the text: as §1, §2

soybean (Glycine max) = system: soybean (Glycine max)
From the text: as §1, §2

[12] = system: velvetleaf (Abutilon theophrasti)
From the text: as §1, §2

[13] = 62 g ai/ha, scale 0 to 100 (0 no effect, 100 complete control)
[14] = 31 g ai/ha, scale 0 to 100, 0 no effect, 100 complete control
[15] = 125 g ai/ha, visual, scale 0 no effect to 100 complete control
[16] = 125 g ai/ha, scale 0 to 100 (0 no effect, 100 complete control)

Structure (SMILES): Cc1cc(C)c2ccccc2c1-c1c(O)c(C)nn(C)c1=O [Compound 21]
- Plant response rating, Corn (corn (Zea mays); [13]): 0
- Plant response rating, Corn (corn (Zea mays); [14]): 0
- Plant response rating, Corn (corn (Zea mays); [15]): 30
- Plant response rating, Crabgrass, Brazil [1, 13]: 98
- Plant response rating, Crabgrass, Brazil [1, 14]: 90
- Plant response rating, Crabgrass, Brazil [1, 15]: 100
- Plant response rating, Crabgrass, Large [2, 13]: 85
- Plant response rating, Crabgrass, Large [2, 14]: 65
- Plant response rating, Crabgrass, Large [2, 15]: 100
- Plant response rating, Dayflower, VA [3, 13]: 60
- Plant response rating, Dayflower, VA [3, 14]: 80
- Plant response rating, Dayflower, VA [3, 15]: 80
- Plant response rating, Foxtail, Giant [4, 13]: 98
- Plant response rating, Foxtail, Giant [4, 14]: 95
- Plant response rating, Foxtail, Giant [4, 15]: 100
- Plant response rating, Foxtail, Green [5, 13]: 100
- Plant response rating, Foxtail, Green [5, 14]: 95
- Plant response rating, Foxtail, Green [5, 15]: 100
- Plant response rating, Johnsongrass [6, 13]: 20
- Plant response rating, Johnsongrass [6, 15]: 60
- Plant response rating, Kochia (kochia (Kochia scoparia); [13]): 0
- Plant response rating, Kochia (kochia (Kochia scoparia); [14]): 0
- Plant response rating, Kochia (kochia (Kochia scoparia); [15]): 65
- Plant response rating, Lambsquarters [7, 13]: 100
- Plant response rating, Lambsquarters [7, 14]: 100
- Plant response rating, Lambsquarters [7, 15]: 100
- Plant response rating, Nutsedge, Yellow [8, 13]: 75
- Plant response rating, Nutsedge, Yellow [8, 16]: 80
- Plant response rating, Nutsedge, Yellow [8, 14]: 0
- Plant response rating, Panicum, Fall [9, 13]: 100
- Plant response rating, Panicum, Fall [9, 16]: 100
- Plant response rating, Panicum, Fall [9, 14]: 100
- Plant response rating, Pigweed, Palmer [10, 13]: 70
- Plant response rating, Pigweed, Palmer [10, 16]: 98
- Plant response rating, Pigweed, Palmer [10, 14]: 65
- Plant response rating, Sandbur [11, 13]: 80
- Plant response rating, Sandbur [11, 16]: 90
- Plant response rating, Sandbur [11, 14]: 80
- Plant response rating, Soybean (soybean (Glycine max); [13]): 35
- Plant response rating, Soybean (soybean (Glycine max); [16]): 35
- Plant response rating, Soybean (soybean (Glycine max); [14]): 35
- Plant response rating, Velvetleaf [12, 13]: 90
- Plant response rating, Velvetleaf [12, 16]: 90
- Plant response rating, Velvetleaf [12, 14]: 80
